Assay results: PMC4721923 (PLoS ONE, 2015)

Tests used:
[1] = system: Jurkat cells (acute T-cell leukemia); test: Chemosensitivity assay (MTT-assay), Jurkat; format: cell-based, human; conditions: 96 hours of incubation, mean ± SEM
Procedure: (§1) Depending on the characteristics of the cells, two different assays were performed. For adherently growing cells (HaCaT, HT-29, NCI-H460, SK-MEL-3, MG-63, Capan-1), cytotoxic and cytocidal effects were determined in the crystal violet assay, whereas for loosely adherent cells (LNCaP, SK-ES-1) and cells growing in suspension (HEL 92.1.7, Jurkat, U-937) the MTT-assay was used with minor modifications. In brief, 1.5 · 10^3 (HaCaT, HT-29, NCI-H460, SK-MEL-3, MG-63, Capan-1) or 5 · 10^3 (Jurkat, U-937, HEL92.1.7, LNCaP, SK-ES-1) cells per well were seeded into flat-bottom 96-well plates (Sarstedt, Nümbrecht, Germany). All compounds were used as solutions prepared in DMSO and tested at final concentrations (8 replicates per concentration) of 1, 3, 10, 30 and 50 μM. In case of the vehicle control and test compounds, the final DMSO concentration amounted to 0.1%. Absorbance was measured at 580 nm in a 96-well plate reader (GENios pro microplate reader, Tecan, Salzburg, Austria). Effects were quantified as previously described for both assays.

OCT1 = biological target: T1, OCT1 (Homo sapiens, UniProt O15245); test: Flow cytometric ASP+-uptake inhibition, HEK-OCT1; format: cell-based; conditions: for IC50: IC50, inhibition of ASP+-uptake, HEK-OCT1, 1 μM ASP+, ± SEM (N = 3)
T1 construct: containing the full length SLC22A1 cDNA (NM_003057) encoding the human OCT1 protein; expressed in transfected cells
T1 sequence (O15245 1-554): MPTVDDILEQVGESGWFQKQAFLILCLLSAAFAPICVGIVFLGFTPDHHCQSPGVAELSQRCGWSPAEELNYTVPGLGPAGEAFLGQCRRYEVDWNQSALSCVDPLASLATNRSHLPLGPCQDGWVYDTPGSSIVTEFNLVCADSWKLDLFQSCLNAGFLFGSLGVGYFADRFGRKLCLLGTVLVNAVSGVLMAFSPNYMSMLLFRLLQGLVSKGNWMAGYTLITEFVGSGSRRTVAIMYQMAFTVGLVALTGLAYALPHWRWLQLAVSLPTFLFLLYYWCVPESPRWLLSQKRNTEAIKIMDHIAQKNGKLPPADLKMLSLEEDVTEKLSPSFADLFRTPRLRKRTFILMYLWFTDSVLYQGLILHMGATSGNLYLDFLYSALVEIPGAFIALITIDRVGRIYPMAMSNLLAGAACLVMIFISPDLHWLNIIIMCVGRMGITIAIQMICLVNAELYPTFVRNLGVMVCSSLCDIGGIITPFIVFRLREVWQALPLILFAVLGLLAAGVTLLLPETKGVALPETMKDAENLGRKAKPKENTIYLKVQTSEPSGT
Procedure: The previously described fluorescent substrate of organic cation transporters, 4-(4-dimethylaminostyryl)-N-methylpyridinium (ASP^+), was used to determine the function of OCT1 and OCT3 by flow cytometry in the absence and the presence of bendamustine and selected bendamustine esters. HEK293 cells expressing the transporter of interest were trypsinized and washed twice with PBS, prior to re-suspension of 0.5 · 10^6 cells in 500 μL of PBS containing 2% (v/v) FCS. The cells were incubated with ASP^+ (100 μM stock solution in PBS containing 10% DMSO) for 5 minutes, allowing for cellular accumulation, and subsequently analyzed with a FACSCalibur flow cytometer. ASP^+ was excited at 488 nm and the fluorescence was measured using a 530/30 nm and a 585/42 band-pass filter. At least 1 · 10^4 single cells were analyzed by appropriate FSC/SSC gating.
The cells were pre-incubated with the respective test compound at different concentrations at room temperature for 10 minutes. Afterwards, ASP^+ was added to a final concentration of 1 μM, and the samples were incubated at 37°C in the dark for 5 minutes. Subsequently, the cells were washed, re-suspended in ice-cold PBS/FCS and stored on ice in the dark until measurement.
The normalized mean fluorescence intensities of the OCT expressing cells, set to 100% in the absence of an inhibitor, were calculated by subtracting the mean fluorescence intensity of unspecific ASP^+ uptake into HEK-Co control cells. The normalized fluorescence intensities in the presence of an inhibitor were plotted against the logarithm of the concentrations of the test compounds to calculate IC50 values. The “log (inhibitor) vs. normalized response-variable slope” equation of GraphPad Prism 5.01 was used for this purpose.

[2] = system: SK-ES-1 cells (Ewing's sarcoma); test: Chemosensitivity assay (MTT-assay), SK-ES-1; format: cell-based, human; conditions: 96 hours of incubation, mean ± SEM
Procedure: as §1

Row | SMILES | IC50 [1] | IC50 ([1]; Homo sapiens, 96 h) | IC50 (OCT1) | inhibition at 5 min, 200 µM (OCT1; human, 200 μM (highest examined concentration)) | IC50 [2] | IC50 ([2]; Homo sapiens, SK-ES1, 96 h) | potency factor relative to TPA at OCT1 (OCT1; from IC50 values)
1 | Cn1c(CCCC(=O)O)nc2cc(N(CCCl)CCCl)ccc21 [Compound 1, bendamustine, reference compound] | 43.4 ± 4.8 µM | 43 µM | > 200 µM | 35% | 9.6 ± 0.3 µM | ~10 µM | 
2 | COC(=O)CCCc1nc2cc(N(CCCl)CCCl)ccc2n1C [Compound 2] |  | 3.1 ± 0.1 µM | 11.3 ± 1.9 µM |  | 0.18 ± 0.02 µM | ~0.2 µM | 
3 | Cn1c(CCCC(=O)OCCN2CCOCC2)nc2cc(N(CCCl)CCCl)ccc21 [Compound 4] |  | 3.2 ± 1 µM | 10.1 ± 2.5 µM |  | 0.91 ± 0.08 µM | 0.9 µM | 
4 | Cn1c(CCCC(=O)OCCN2CCCC2)nc2cc(N(CCCl)CCCl)ccc21 [Compound 5] |  | 0.61 ± 0.02 µM | 0.35 ± 0.03 µM |  |  | 0.09 ± 0.01 µM | approximately 20
